Experimental data reported in the supplement of paper PMC10307832.

Assays:
Test in all cases: relative viability (nuclei count vs DMSO), 5 days (fraction); higher = more cells survive
Obatoclax + Linsitinib = compound: COC1=CC(c2cc3ccccc3[nH]2)=N/C1=C\c1[nH]c(C)cc1C [Obatoclax] + C[C@]1(O)C[C@@H](c2nc(-c3ccc4ccc(-c5ccccc5)nc4c3)c3c(N)nccn32)C1 [Linsitinib] (partner 1 µM)
In short: (§1)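 Each reported value is a median over duplicate plates. It expresses relative viability: treated-well nuclei count divided by vehicle-well nuclei count. Lung cancer cell lines in 1536-well plates were dosed by pin tool a day after seeding, alone with one drug or with a fixed anchor-drug dose plus five library-drug doses (not always all listed) in √10 steps, and nuclei were counted after 5 days.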

[1] = compound: CC1=CC(=NN1)NC2=CC(=NC(=N2)/C=C/C3=CC=CC=C3)N4CCN(CC4)C + CS(=O)(=O)N1CCN(Cc2cc3nc(-c4cccc5[nH]ncc45)nc(N4CCOCC4)c3s2)CC1 [Pictilisib] (partner 1 µM)
In short: as §1

Obatoclax + Olaparib = compound: COC1=CC(c2cc3ccccc3[nH]2)=N/C1=C\c1[nH]c(C)cc1C [Obatoclax] + O=C(c1cc(Cc2n[nH]c(=O)c3ccccc23)ccc1F)N1CCN(C(=O)C2CC2)CC1 [Olaparib] (partner 8 µM)
In short: as §1

[2] = compound: CC1=CC(=NN1)NC2=CC(=NC(=N2)/C=C/C3=CC=CC=C3)N4CCN(CC4)C + C[C@@H](Oc1cc(-c2cnn(C3CCNCC3)c2)cnc1N)c1c(Cl)ccc(F)c1Cl [Crizotinib] (partner 1 µM)
In short: as §1

With NCI-H650 the relative viability (Obatoclax + Linsitinib; first compound 0.01 µM) was 0.874, the relative viability (Obatoclax + Linsitinib; first compound 0.03162 µM) was 0.757 and the relative viability (Obatoclax + Linsitinib; first compound 0.1 µM) was 0.329. It also gave a relative viability (Obatoclax + Linsitinib; first compound 0.3162 µM) of 0.528, a relative viability (Obatoclax + Linsitinib; first compound 1 µM) of 0.425 and a relative viability ([1]; first compound 0.08 µM) of 0.763. For the same cell line, the relative viability ([1]; first compound 0.253 µM) was 0.92, the relative viability ([1]; first compound 0.8 µM) was 0.93 and the relative viability ([1]; first compound 2.53 µM) was 0.719. The relative viability ([1]; first compound 8 µM) was 0.183, the relative viability (Obatoclax + Olaparib; first compound 0.01 µM) was 0.385 and the relative viability (Obatoclax + Olaparib; first compound 0.03162 µM) was 0.388. For the same cell line, the relative viability (Obatoclax + Olaparib; first compound 0.3162 µM) was 0.264, the relative viability (Obatoclax + Olaparib; first compound 1 µM) was 0.18 and the relative viability ([2]; first compound 0.08 µM) was 0.916. It also gave a relative viability ([2]; first compound 0.253 µM) of 0.739, a relative viability ([2]; first compound 0.8 µM) of 0.515 and a relative viability ([2]; first compound 2.53 µM) of 0.358. It also gave a relative viability ([2]; first compound 8 µM) of 0.188.
